{"source": "patent US20150290235A1", "about": "“USE OF SMALL MOLECULE INHIBITORS/ACTIVATORS IN COMBINATION WITH (DEOXY)NUCLEOSIDE OR (DEOXY)NUCLEOTIDE ANALOGS FOR TREATMENT OF CANCER AND HEMATOLOGICAL MALIGNANCIES OR VIRAL INFECTIONS” (AB SCIENCE, priority 2012, published 2015)", "key": {"[1]": {"system": "Abrams osteosarcoma cells", "assay": "Alamar Blue cell proliferation assay, Abrams", "assay_type": "cell-based, canine", "conditions": "Canis lupus familiaris, 72 h, read-out: Combination IC50 (chemotherapeutic agent with fixed masitinib)"}, "[2]": {"system": "Mia Paca-2 pancreatic tumors", "assay": "Nog-SCID mouse model of human pancreatic cancer", "assay_type": "in vivo, Nog-SCID mice", "conditions": "day 56, 28 days of treatment; control 1023"}, "[3]": {"system": "Mia Paca-2 pancreatic cancer cells", "assay": "WST-1 proliferation assay, Mia Paca-2", "assay_type": "cell-based, human", "conditions": "Homo sapiens"}, "[4]": {"system": "Capan-2 pancreatic cancer cells", "assay": "WST-1 proliferation assay, Capan-2", "assay_type": "cell-based, human", "conditions": "Homo sapiens", "procedure": "(§1) Cancer cell lines: Pancreatic cancer cells lines (Mia Paca-2, Panc-1, BxPC-3 and Capan-2) were obtained from Dr. Juan Iovanna (Inserm, France). Cells were maintained in RPMI (BxPC-3, Capan-2) or DMEM (Mia Paca-2, Panc-1) medium containing glutamax-1 (Lonza), supplemented with 100 U/ml penicillin/100 μg/ml streptomycin, and 10% fetal calf serum (FCS) (AbCys, Lot S02823S1800). Expression of tyrosine kinases was determined by RT-PCR using Hot Star Taq (Qiagen GmbH, Hilden, Germany) in a 2720 Thermal Cycler (Applied Biosystems).\n(§2) Treatment was started with the addition of the respective drug. […] After 72 hours WST-1 reagent was added and incubated with the cells for 4 hours before absorbance measurement at 450 nm in an EL800 Universal Microplate Reader (Bio-Tek Instruments Inc.). Media alone was used as a blank and proliferation in the absence of compounds served as positive control. Results are representative of three/four experiments."}, "[5]": {"system": "CMT12 breast carcinoma cells", "assay": "Alamar Blue cell proliferation assay, CMT12", "assay_type": "cell-based, canine", "conditions": "Canis lupus familiaris, Breast carcinoma cell, 72 h, read-out: Combination IC50 (chemotherapeutic agent with fixed masitinib)"}, "BT20 breast cancer cells": {"system": "BT20 breast cancer cells", "assay": "WST-1 proliferation/survival assay, BT20", "assay_type": "cell-based", "conditions": "Homo sapiens, BT-20, read-out: Gemcitabine IC50", "procedure": "(§3) Gemcitabine (Gemzar, Lilly France) was obtained as a powder and dissolved in sterile 0.9% NaCl solution and stored as aliquots at −80° C. Fresh dilutions were prepared fcr each experiment. Cell lines: Colon and prostate cancer cell lines (Dr. Juan Iovanna, INSERM U624, Marseille, France), breast and ovarian cancer cell lines (Dr. Patrice Dubreuil, UMR 599 INSERM, Marseille, France), and lung cancer cell lines (Pr. Christian Auclair, UMR 8113 CNRS) were cultured as monolayers in RPMI 1640 medium containing L-glutamine supplemented with 100 U/ml penicillin and 100 μg/ml streptomycin, and 10% v/v heat-inactivated fetal calf serum (AbCys Lot S02823S1800) under standard culture conditions (5% CO2, 95% air in humidified chamber at 37° C.). In proliferation assays, all cells were grown in medium containing 1% FCS.\nas §2, with “control (DMSO control). The new IC50 was scored and the results” for “control. Results”, “3-4” for “three/four”"}, "A549 NSCLC cells": {"system": "A549 NSCLC cells", "assay": "WST-1 proliferation/survival assay, A549", "assay_type": "cell-based", "conditions": "Homo sapiens, read-out: Gemcitabine IC50", "procedure": "as §3\nas §2, with “control (DMSO control). The new IC50 was scored and the results” for “control. Results”, “3-4” for “three/four”"}, "[6]": {"system": "LnCaP prostate cancer cells", "assay": "WST-1 proliferation/survival assay, LnCaP", "assay_type": "cell-based", "conditions": "Homo sapiens, read-out: Gemcitabine IC50", "procedure": "as §3\nas §2, with “control (DMSO control). The new IC50 was scored and the results” for “control. Results”, “3-4” for “three/four”"}, "[7]": {"system": "CaCo-2 colorectal cancer cells", "assay": "WST-1 proliferation/survival assay, CaCo-2", "assay_type": "cell-based", "conditions": "Homo sapiens, read-out: Gemcitabine IC50", "procedure": "as §3\nas §2, with “control (DMSO control). The new IC50 was scored and the results” for “control. Results”, “3-4” for “three/four”"}, "[8]": {"system": "HRT118 colorectal cancer cells", "assay": "WST-1 proliferation/survival assay, HRT118", "assay_type": "cell-based", "conditions": "Homo sapiens, read-out: Gemcitabine IC50", "procedure": "as §3\nas §2, with “control (DMSO control). The new IC50 was scored and the results” for “control. Results”, “3-4” for “three/four”"}, "[9]": {"system": "DU145 prostate cancer cells", "assay": "WST-1 proliferation/survival assay, DU145", "assay_type": "cell-based", "conditions": "Homo sapiens, DU-145, read-out: Gemcitabine IC50", "procedure": "as §3\nas §2, with “control (DMSO control). The new IC50 was scored and the results” for “control. Results”, “3-4” for “three/four”"}, "D17 osteosarcoma cells": {"system": "D17 osteosarcoma cells", "assay": "Alamar Blue cell proliferation assay, D17", "assay_type": "cell-based, canine", "conditions": "Canis lupus familiaris, 72 h, read-out: Combination IC50 (chemotherapeutic agent with fixed masitinib)"}, "[10]": {"system": "CMT27 breast carcinoma cells", "assay": "Alamar Blue cell proliferation assay, CMT27", "assay_type": "cell-based, canine", "conditions": "Canis lupus familiaris, Breast carcinoma cell, 72 h, read-out: Combination IC50 (chemotherapeutic agent with fixed masitinib)"}, "[11]": {"system": "BT474 breast cancer cells", "assay": "WST-1 proliferation/survival assay, BT474", "assay_type": "cell-based", "conditions": "Homo sapiens, BT-474, read-out: Gemcitabine IC50", "procedure": "as §3\nas §2, with “control (DMSO control). The new IC50 was scored and the results” for “control. Results”, “3-4” for “three/four”"}, "H1299 NSCLC cells": {"system": "H1299 NSCLC cells", "assay": "WST-1 proliferation/survival assay, H1299", "assay_type": "cell-based", "conditions": "Homo sapiens, NCI-H1299, read-out: Gemcitabine IC50", "procedure": "as §3\nas §2, with “control (DMSO control). The new IC50 was scored and the results” for “control. Results”, “3-4” for “three/four”"}, "[12]": {"system": "BxPC-3 pancreatic cancer cells", "assay": "WST-1 proliferation assay, BxPC-3", "assay_type": "cell-based, human", "procedure": "as §1, §2"}, "C2 mastocytoma cells": {"system": "C2 mastocytoma cells", "assay": "Alamar Blue cell proliferation assay, C2", "assay_type": "cell-based, canine", "conditions": "Canis lupus familiaris, 72 h, read-out: Combination IC50 (chemotherapeutic agent with fixed masitinib)"}, "[13]": {"system": "OVCAR3 ovarian cancer cells", "assay": "WST-1 proliferation/survival assay, OVCAR3", "assay_type": "cell-based", "conditions": "Homo sapiens, OVCAR-3, read-out: Gemcitabine IC50", "procedure": "as §3\nas §2, with “control (DMSO control). The new IC50 was scored and the results” for “control. Results”, “3-4” for “three/four”"}, "[14]": {"system": "MDAMB 134 breast cancer cells", "assay": "WST-1 proliferation/survival assay, MDAMB 134", "assay_type": "cell-based", "conditions": "Homo sapiens, read-out: Gemcitabine IC50", "procedure": "as §3\nas §2, with “control (DMSO control). The new IC50 was scored and the results” for “control. Results”, “3-4” for “three/four”"}, "[15]": {"system": "MDAMB 231 breast cancer cells", "assay": "WST-1 proliferation/survival assay, MDAMB 231", "assay_type": "cell-based", "conditions": "Homo sapiens, MDA-MB-231, read-out: Gemcitabine IC50", "procedure": "as §3\nas §2, with “control (DMSO control). The new IC50 was scored and the results” for “control. Results”, “3-4” for “three/four”"}, "H1650 NSCLC cells": {"system": "H1650 NSCLC cells", "assay": "WST-1 proliferation/survival assay, H1650", "assay_type": "cell-based", "conditions": "Homo sapiens, NCI-H1650, read-out: Gemcitabine IC50", "procedure": "as §3\nas §2, with “control (DMSO control). The new IC50 was scored and the results” for “control. Results”, “3-4” for “three/four”"}, "[16]": {"system": "Panc-1 pancreatic cancer cells", "assay": "WST-1 proliferation assay, Panc-1", "assay_type": "cell-based, human", "conditions": "Homo sapiens", "procedure": "as §1, §2"}}, "note": "Like-named read-outs stand apart in the source and are kept apart here. Marks after values point to notes of the source that are not given here.", "data": [{"smiles": "Nc1ccn([C@@H]2O[C@H](CO)[C@@H](O)C2(F)F)c(=O)n1", "note": "[Gemcitabine, 4-amino-1-(2-deoxy-2,2-difluoro-β-D-erythro-pentofuranosyl)pyrimidin-2(1H)-on 2′,2′-difluoro-2′-deoxycytidine]", "values": [{"measurement": "IC50", "setting": "[1]", "result": 1, "unit": "µM"}, {"measurement": "Tumor Volume, Median", "setting": "[2]", "result": "662* mm^3"}, {"measurement": "IC50", "setting": "[3]; MIA PaCa-2, read-out: IC50 of gemcitabine plus 5 μM masitinib", "result": 1.5, "unit": "µM"}, {"measurement": "IC50", "setting": "[3]; MIA PaCa-2, read-out: IC50 of gemcitabine plus 10 μM masitinib", "result": 0.025, "unit": "µM"}, {"measurement": "IC50", "setting": "[3]; Mia Paca-2, 72 hours, 1% FCS, read-out: IC50, single agent", "result": "> 10", "unit": "µM"}, {"measurement": "IC50", "setting": "[3]; Mia Paca-2, read-out: IC50, single agent (resistance)", "result": "> 2500", "unit": "µM"}, {"measurement": "IC50", "setting": "[4]; Capan-2, 72 h, Capan-2, 72 hours, 1% FCS, read-out: IC50, single agent", "result": "2 to 20", "unit": "µM"}, {"measurement": "IC50", "setting": "[4]; Capan-2, read-out: IC50 of gemcitabine plus 5 μM masitinib, Capan-2, masitinib overnight before gemcitabine", "result": 2, "unit": "µM"}, {"measurement": "IC50", "setting": "[5]", "result": 10.8, "unit": "µM"}, {"measurement": "IC50", "setting": "BT20 breast cancer cells", "result": 50, "unit": "µM"}, {"measurement": "IC50", "setting": "A549 NSCLC cells", "result": 100, "unit": "µM"}, {"measurement": "IC50", "setting": "[6]", "result": "25 to 100", "unit": "µM"}, {"measurement": "IC50", "setting": "[7]", "result": "> 100", "unit": "µM"}, {"measurement": "IC50", "setting": "[8]", "result": "> 100", "unit": "µM"}, {"measurement": "IC50", "setting": "[9]", "result": 100, "unit": "µM"}, {"measurement": "IC50", "setting": "D17 osteosarcoma cells", "result": 1.3, "unit": "µM"}, {"measurement": "IC50", "setting": "[10]", "result": 1.3, "unit": "µM"}, {"measurement": "IC50", "setting": "[11]", "result": 100, "unit": "µM"}, {"measurement": "IC50", "setting": "H1299 NSCLC cells", "result": 100, "unit": "µM"}, {"measurement": "IC50", "setting": "[12]; BxPC-3, 72 hours, 1% FCS, read-out: IC50, single agent", "result": "2 to 20", "unit": "µM"}, {"measurement": "IC50", "setting": "[12]; Homo sapiens, BXPC-3, read-out: IC50 of gemcitabine plus 5 μM masitinib, BxPC-3, masitinib overnight before gemcitabine", "result": 10, "unit": "µM"}, {"measurement": "IC50", "setting": "[12]; Homo sapiens, BXPC-3, read-out: IC50 of gemcitabine plus 10 μM masitinib, BxPC-3, masitinib overnight before gemcitabine", "result": 10, "unit": "µM"}, {"measurement": "IC50", "setting": "C2 mastocytoma cells", "result": "> 100", "unit": "µM"}, {"measurement": "IC50", "setting": "[13]", "result": 50, "unit": "µM"}, {"measurement": "IC50", "setting": "[14]", "result": 100, "unit": "µM"}, {"measurement": "IC50", "setting": "[15]", "result": 100, "unit": "µM"}, {"measurement": "IC50", "setting": "H1650 NSCLC cells", "result": 5, "unit": "µM"}, {"measurement": "IC50", "setting": "[16]; PANC-1, read-out: IC50 of gemcitabine plus 5 μM masitinib", "result": 8, "unit": "µM"}, {"measurement": "IC50", "setting": "[16]; PANC-1, read-out: IC50 of gemcitabine plus 10 μM masitinib", "result": 1, "unit": "µM"}, {"measurement": "IC50", "setting": "[16]; Panc-1, 72 hours, 1% FCS, read-out: IC50, single agent", "result": "> 10", "unit": "µM"}, {"measurement": "IC50", "setting": "[16]; Panc-1, read-out: IC50, single agent (resistance)", "result": "> 2500", "unit": "µM"}]}]}
